Results as given in PMC9937012 (Journal of Enzyme Inhibition and Medicinal Chemistry, 2023).

Experiments:
human H3R = human H3R (Homo sapiens, UniProt Q9Y5N1); assay: Human H3R radioligand displacement assay; conditions: for inhibition at 1 µM: read-out: hH3R Inhibition at 1 µM [%] ±SD (n)
human AChE = human AChE (Homo sapiens, UniProt P22303); assay: Inhibition of AChE; type: biochemical; conditions: for inhibition at 10 µM: read-out: AChE Inhibition at 10 µM [%]
human H4R = human H4R (Homo sapiens, UniProt Q9H3N8); assay: Human H4R radioligand displacement assay; conditions: read-out: hH4R Inhibition at 10 µM [%] (n)
human H4R, sequence (Q9H3N8 whole entry): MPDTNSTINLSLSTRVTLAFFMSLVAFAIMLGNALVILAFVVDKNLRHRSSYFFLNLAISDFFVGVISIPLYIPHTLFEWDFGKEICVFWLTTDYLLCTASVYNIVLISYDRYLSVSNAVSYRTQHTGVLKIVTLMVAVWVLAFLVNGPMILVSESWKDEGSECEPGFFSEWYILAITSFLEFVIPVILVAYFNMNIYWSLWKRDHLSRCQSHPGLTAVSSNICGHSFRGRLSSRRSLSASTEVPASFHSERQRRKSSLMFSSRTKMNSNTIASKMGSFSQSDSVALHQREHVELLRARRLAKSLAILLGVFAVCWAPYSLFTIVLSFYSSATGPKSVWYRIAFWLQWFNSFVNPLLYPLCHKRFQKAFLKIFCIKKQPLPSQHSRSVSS

human H1R = human H1R (Homo sapiens, UniProt P35367); assay: Human H1R radioligand displacement assay; type: binding; conditions: for inhibition at 10 µM: read-out: hH1R Inhibition at 10 µM [%] ±SD (n); for inhibition at 1 µM: read-out: hH1R Inhibition at 1 µM [%] (n)
human H1R, sequence (P35367 whole entry): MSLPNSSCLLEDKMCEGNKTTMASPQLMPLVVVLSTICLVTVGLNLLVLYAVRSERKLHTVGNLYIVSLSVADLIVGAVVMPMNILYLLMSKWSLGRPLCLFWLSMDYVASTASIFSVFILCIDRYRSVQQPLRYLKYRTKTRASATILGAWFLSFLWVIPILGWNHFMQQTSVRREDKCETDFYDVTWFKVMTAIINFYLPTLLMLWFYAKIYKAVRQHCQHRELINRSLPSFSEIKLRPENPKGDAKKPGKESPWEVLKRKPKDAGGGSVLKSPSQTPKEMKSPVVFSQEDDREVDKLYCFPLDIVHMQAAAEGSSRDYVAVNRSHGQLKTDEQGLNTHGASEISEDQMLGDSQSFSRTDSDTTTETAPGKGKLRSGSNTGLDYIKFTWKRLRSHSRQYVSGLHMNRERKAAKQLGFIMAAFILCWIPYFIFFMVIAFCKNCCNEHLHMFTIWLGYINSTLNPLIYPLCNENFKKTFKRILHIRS

human AChE, sequence (P22303 32-614): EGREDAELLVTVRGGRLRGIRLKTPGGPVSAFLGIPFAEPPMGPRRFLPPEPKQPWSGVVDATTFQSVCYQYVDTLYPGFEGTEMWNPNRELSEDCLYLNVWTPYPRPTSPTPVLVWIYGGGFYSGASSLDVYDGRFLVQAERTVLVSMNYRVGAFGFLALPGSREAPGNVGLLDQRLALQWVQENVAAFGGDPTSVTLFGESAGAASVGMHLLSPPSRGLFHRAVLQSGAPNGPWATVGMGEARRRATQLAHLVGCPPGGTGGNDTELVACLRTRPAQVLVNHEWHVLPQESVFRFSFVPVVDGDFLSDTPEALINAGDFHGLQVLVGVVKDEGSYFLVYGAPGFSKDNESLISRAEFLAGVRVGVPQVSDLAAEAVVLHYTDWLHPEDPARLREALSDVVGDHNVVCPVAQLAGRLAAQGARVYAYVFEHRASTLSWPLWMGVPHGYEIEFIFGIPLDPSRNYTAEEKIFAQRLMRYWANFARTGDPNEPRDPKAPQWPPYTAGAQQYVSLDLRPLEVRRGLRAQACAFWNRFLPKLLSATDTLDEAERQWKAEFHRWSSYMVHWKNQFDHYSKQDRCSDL
human H3R, sequence (Q9Y5N1 whole entry): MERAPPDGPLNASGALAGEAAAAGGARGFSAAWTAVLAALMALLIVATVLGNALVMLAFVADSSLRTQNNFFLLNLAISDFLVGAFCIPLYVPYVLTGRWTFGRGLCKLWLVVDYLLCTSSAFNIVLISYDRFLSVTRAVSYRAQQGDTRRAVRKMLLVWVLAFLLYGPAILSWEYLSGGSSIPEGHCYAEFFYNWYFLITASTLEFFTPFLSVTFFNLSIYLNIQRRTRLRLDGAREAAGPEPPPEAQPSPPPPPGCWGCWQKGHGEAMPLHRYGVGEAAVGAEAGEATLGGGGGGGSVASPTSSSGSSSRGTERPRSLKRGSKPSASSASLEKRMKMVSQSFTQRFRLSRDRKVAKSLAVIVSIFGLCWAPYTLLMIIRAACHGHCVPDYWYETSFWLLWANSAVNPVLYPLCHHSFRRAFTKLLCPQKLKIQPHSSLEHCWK

| Structure (SMILES) | inhibition at 1 µM (human H3R) [%] | IC50 (human AChE) [µM] | inhibition at 10 µM (human AChE) [%] | inhibition at 10 µM (human H4R) [%] | inhibition at 10 µM (human H1R) [%] | Ki (human H3R) [µM] | inhibition at 1 µM (human H1R) [%] |
| --- | --- | --- | --- | --- | --- | --- | --- |
| CCOC(=O)c1nc2ccc(OCCN3CCOCC3)cc2s1 [Compound 1a, Ethyl 6-(2-morpholinoethoxy)benzo[d]thiazole-2-carboxylate] | 63.3 ± 4.2 | > 10 | 7.64 ± 7.33 | 39.2 ± 34.7 | < 0 | – | – |
| CCOC(=O)c1nc2ccc(OCCN3CCCCC3)cc2s1 [Compound 1b, Ethyl 6-(2-(piperidin-1-yl)ethoxy)benzo[d]thiazole-2-carboxylate] | 35.2 ± 14.4 | > 10 | 9.25 ± 7.88 | 61.7 ± 35.4 | < 0 | – | – |
| CCOC(=O)c1nc2ccc(OCCN3CCCC3)cc2s1 [Compound 1c, Ethyl 6-(2-(pyrrolidin-1-yl)ethoxy)benzo[d]thiazole-2-carboxylate] | 50.2 ± 10.9 | 7.63 ± 1.6 | 57.2 ± 5.41 | 54 ± 12.1 | 1 ± 9.7 | – | – |
| COC(=O)c1nc2ccc(OCCN3CCOCC3)cc2s1 [Compound 1d, Methyl 6-(2-morpholinoethoxy)benzo[d]thiazole-2-carboxylate] | 25.3 ± 5.4 | > 10 | 5.52 ± 6.39 | 51.3 ± 18.2 | 11.2 ± 10.5 | – | – |
| COC(=O)c1nc2ccc(OCCN3CCCCC3)cc2s1 [Compound 1e, Methyl 6-(2-(piperidin-1-yl)ethoxy)benzo[d]thiazole-2-carboxylate] | 54.2 ± 28.4 | 2.92 ± 0.37 | 84 ± 4.25 | – | 16.3 ± 41.7 | – | – |
| COC(=O)c1nc2ccc(OCCCN[C@@H](Cc3ccc(O)cc3)C(=O)OC)cc2s1 [Compound 2a, Methyl (S)-6-(3-((3-(4-hydroxyphenyl)-1-methoxy-1-oxopropan-2-yl)amino)propoxy)benzo[d]thiazole-2-carboxylate] | 54.8 ± 21.2 | > 10 | < 0 | 35.5 ± 32.1 | < 0 | – | – |
| O=C(c1nc2ccc(OCCN3CCCCC3)cc2s1)N1CCCCC1 [Compound 3a, Piperidin-1-yl-(6-(2-(piperidin-1-yl)ethoxy)benzo[d]thiazol-2-yl)methanone] | 68 ± 9.1 | > 10 | 35.5 ± 13.4 | 30.3 ± 24.9 | < 0 | > 1 | – |
| O=C(NCC1CCCCC1)c1nc2ccc(OCCNCC3CCCCC3)cc2s1 [Compound 3c, N-(Cyclohexylmethyl)-6-(2-((cyclohexylmethyl)amino)ethoxy)benzo[d]thiazole-2-carboxamide] | 31.5 ± 11.4 | > 10 | < 0 | 52.8 ± 11.8 | 5.3 ± 14.2 | – | – |
| O=C(NC1CCCCCC1)c1nc2ccc(OCCCNC3CCCCCC3)cc2s1 [Compound 3e, N-Cycloheptyl-6-(3-(cycloheptylamino)propoxy)benzo[d]thiazole-2-carboxamide] | 35.7 ± 11.5 | > 10 | 7.3 ± 2.31 | 53.5 ± 15.2 | 12.1 ± 18.3 | – | – |
| O=C(NCC1CCCCC1)c1nc2ccc(OCCCNCC3CCCCC3)cc2s1 [Compound 3f, N-(Cyclohexylmethyl)-6-(3-((cyclohexylmethyl)amino)propoxy)benzo[d]thiazole-2-carboxamide] | 46.3 ± 14.7 | > 10 | 3.2 ± 3.69 | 60.8 ± 30.4 | 47.6 ± 12.9 | – | – |
| O=C(NC1CC1)c1nc2ccc(OCCCNC3CC3)cc2s1 [Compound 3g, N-Cyclopropyl-6-(3-(cyclopropylamino)propoxy)benzo[d]thiazole-2-carboxamide] | 27.7 ± 12.8 | > 10 | 15.4 ± 11.2 | 30.2 ± 14.3 | 13.6 ± 10.7 | – | – |
| CC1CC(C)CN(CCCOc2ccc3nc(C(=O)N4CC(C)CC(C)C4)sc3c2)C1 (centres unmarked) [Compound 4c, (3,5-Dimethylpiperidin-1-yl)(6-(3-(3,5-dimethylpiperidin-1-yl)propoxy)benzo[d]thiazol-2-yl)methanone] | – | > 10 | 6.9 ± 1.67 | – | – | 0.34 | 26.8 ± 31 |
| O=C(NCCc1ccccc1)c1nc2ccc(OCCCNCCc3ccccc3)cc2s1 [Compound 4d, N-Phenethyl-6-(3-(phenethylamino)propoxy)benzo[d]thiazole-2-carboxamide] | – | > 10 | 5.2 ± 2.36 | – | – | > 1 | 10.9 ± 37.1 |
| O=C(c1nc2ccc(OCCCN3CCc4ccccc4C3)cc2s1)N1CCc2ccccc2C1 [Compound 4e, (3,4-Dihydroisoquinolin-2(1H)-yl)(6-(3-(3,4-dihydroisoquinolin-2(1H)-yl)propoxy)benzo[d]thiazol-2-yl)methanone] | – | > 10 | 6.2 ± 3.15 | – | – | 0.34 | 9.7 ± 23 |
| CCN1CCN(CCCOc2ccc3nc(C(=O)N4CCN(CC)CC4)sc3c2)CC1 [Compound 4f, (4-Ethylpiperazin-1-yl)(6-(3-(4-ethylpiperazin-1-yl)propoxy)benzo[d]thiazol-2-yl)methanone] | – | > 10 | 8.2 ± 1.64 | – | – | 0.43 | 3 ± 36 |
| CN1CCN(CCCOc2ccc3nc(C(=O)N4CCN(C)CC4)sc3c2)CC1 [Compound 4g, (4-Methylpiperazin-1-yl)(6-(3-(4-methylpiperazin-1-yl)propoxy)benzo[d]thiazol-2-yl)methanone] | – | > 10 | 7.7 ± 1.87 | – | – | > 1 | 4.8 ± 37.7 |
| CC1CN(CCCOc2ccc3nc(C(=O)N4CCNC(C)C4)sc3c2)CCN1 (centres unmarked) [Compound 4h, (3-Methylpiperazin-1-yl)(6-(3-(3-methylpiperazin-1-yl)propoxy)benzo[d]thiazol-2-yl)methanone] | – | > 10 | 8.3 ± 1.02 | – | – | 0.47 | 18.4 ± 27 |
| O=C(c1nc2ccc(OCCCN3CCN(CCO)CC3)cc2s1)N1CCN(CCO)CC1 [Compound 4i, (4-(2-Hydroxyethyl)piperazin-1-yl)(6-(3-(4-(2-hydroxyethyl)piperazin-1-yl)propoxy)benzo[d]thiazol-2-yl)methanone] | – | > 10 | 7.3 ± 2.77 | – | – | 0.12 | 22.5 ± 27.4 |
| O=C(NCc1ccccc1)c1nc2ccc(OCCCNCc3ccccc3)cc2s1 [Compound 4j, N-Benzyl-6-(3-(benzylamino)propoxy)benzo[d]thiazole-2-carboxamide] | – | > 10 | 20.3 ± 3.55 | – | – | 0.64 | 27 ± 39.4 |
| CC1CCN(CCCOc2ccc3nc(C(=O)N4CCC(C)CC4)sc3c2)CC1 [Compound 4l, (4-Methylpiperidin-1-yl)(6-(3-(4-methylpiperidin-1-yl)propoxy)benzo[d]thiazol-2-yl)methanone] | – | > 10 | 8.4 ± 0.51 | – | – | 0.43 | 26.8 ± 26.3 |
| CC(=O)N1CCN(CCCOc2ccc3nc(C(=O)N4CCN(C(C)=O)C(C)C4)sc3c2)CC1C (centres unmarked) [Compound 4m, 1-(4-(6-(3-(4-Acetyl-3-methylpiperazin-1-yl)propoxy)benzo[d]thiazole-2-carbonyl)-2-methylpiperazin-1-yl)ethan-1-one] | – | > 10 | 2.4 ± 2.06 | – | – | 0.4 | 27 ± 27.6 |
